Columns and labels:
Arc mRNA = Arc mRNA expression (qPCR) in ventral and dorsal striatum; type: in vivo, mice; details: 10 mg/kg i.p., 120 min after administration, vs saline
Procedure: (§1) Mice were injected with an acute dose of 10 mg/kg i.p. of the corresponding synthetic cathinone or saline solution. The dose was chosen according to the behavioral results obtained since it caused significant response in both CPP and HLA tests in all compounds tested. 30 min or 2 h post-administration, mice were sacrificed by cervical dislocation and the VS, DS, and mPFC were dissected out ([Paxinos and Franklin, 2004]) using a mouse brain acrylic matrix (Agnthos, Sweden) and stored at -80°C until use. Total RNA was isolated following a standard TRIsure reagent–chloroform extraction protocol ([Duart-Castells et al., 2019]).
(§2) Reverse transcription polymerase chain reaction (RT-PCR) was carried out to obtain complementary DNA (cDNA) by using the High Capacity cDNA Reverse Transcription Kit (Applied Biosystems) and the Veriti thermal cycler (Applied Biosystems, Foster, CA, United States). Synthesis of cDNA was obtained by mixing 1,000 ng of total RNA with the corresponding volumes of each kit reagent to a final volume of 20 μL. Quantitative real-time polymerase chain reaction (qPCR) was performed by using the StepOnePlus^TM Real-Time PCR System and TaqMan PCR Master Mix (Applied Biosystems, Foster, CA, United States). 25 ng of cDNA was loaded in a final volume of 20 μL containing sequence-specific primers and TaqMan probes (Mm01204954_g1 for Arc, Mm04230607_s1 for bdnf, Mm00487425_m1 for c-fos, and Mm00607939_s1 for β-actin). Each sample was tested in duplicate. qPCR conditions were 2 min at 50°C, 10 min at 95°C, 40 cycles/15 s at 95°C, and 60 s at 60°C. Changes in gene expression were defined by using the comparative Ct method for each experimental sample. Gene expression was normalized by using the mean of Ct values of the housekeeping gene β-actin.

Swiss CD-1 mice = assay: Horizontal locomotor activity (HLA); type: in vivo
bdnf mRNA = bdnf mRNA expression (qPCR) in medial prefrontal cortex; type: in vivo, mice; details: 10 mg/kg i.p., 120 min after administration, vs saline
Procedure: as §1
Reverse transcription polymerase chain reaction (RT-PCR) was carried out to obtain complementary DNA (cDNA) by using the High Capacity cDNA Reverse Transcription Kit (Applied Biosystems) and the Veriti thermal cycler (Applied Biosystems, Foster, CA, United States). Synthesis of cDNA was obtained by mixing 1,000 ng of total RNA with the corresponding volumes of each kit reagent to a final volume of 20 μL. Quantitative real-time polymerase chain reaction (qPCR) was performed by using the StepOnePlus^TM Real-Time PCR System and TaqMan PCR Master Mix (Applied Biosystems, Foster, CA, United States). […]

c-fos mRNA = c-fos mRNA expression (qPCR) in ventral and dorsal striatum; type: in vivo, mice; details: 10 mg/kg i.p., 30 min after injection, vs saline
Procedure: as §1, §2

CCCC(NCC)C(=O)c1ccc2c(c1)OCO2 (stereo not drawn) [N-Ethyl-pentylone, 3’,4’-methylendioxy-α-ethylaminovalerophenone]
Arc gene expression in the DS, 120 min (Arc mRNA): significant increase | Arc gene expression in the VS, 120 min (Arc mRNA): significant increase | HLA vs saline at the lowest dose (Swiss CD-1 mice; 3 mg/kg i.p., 60 min): increase | Persistence of the increase in locomotor activity (Swiss CD-1 mice; 10 mg/kg i.p.): more than 1 hour | HLA after 30 mg/kg compared to the medium dose (10 mg/kg) (Swiss CD-1 mice; 30 mg/kg vs 10 mg/kg i.p.): significant decrease | bdnf mRNA levels in the mPFC, 120 min (bdnf mRNA): significant overexpression | c-fos expression in the DS, 30 min (c-fos mRNA): increased | c-fos expression in the VS, 30 min (c-fos mRNA): significant overexpression
